Assay results published in patent US7405205B2, “Antitumor antisense sequences directed against R1 and R2 components of ribonucleotide reductase” (Lorus Therapeutics Inc., priority 1996, dated 2008).
Strand notation (5' to 3'): a small letter for the sugar, then the base; units joined by * are phosphorothioate-linked, units joined directly phosphodiester-linked; [ ] holds rarer units or linkages, { } end groups; capitals alone tell only the bases. d = 2'-deoxy (DNA)

Legend:
Type in all cases: cell-based, human
[1] = system: MIA PaCa-2 pancreatic cell carcinoma; assay: Relative colony forming efficiency after antisense treatment (Table 13); settings: 0.2 μM antisense oligodeoxyribonucleotide phosphorothioate; MIA PaCa-2 cells; averages of 2-8 determinations
[2] = system: HepG2 hepatocellular carcinoma; assay: Relative colony forming efficiency after antisense treatment (Table 13, FIG. 12); settings: 0.2 μM antisense oligodeoxyribonucleotide phosphorothioate; HepG2 cells; averages of 2-8 determinations
[3] = system: HCT116 colon cell carcinoma; assay: Relative colony forming efficiency after antisense treatment (Table 13); settings: 0.2 μM antisense oligodeoxyribonucleotide phosphorothioate; HCT116 cells; averages of 2-8 determinations
[4] = system: MDA-MB-231 breast cell adenocarcinoma; assay: Relative colony forming efficiency after antisense treatment (Table 13, FIG. 11, FIG. 12); settings: 0.2 μM antisense oligodeoxyribonucleotide phosphorothioate; MDA-MB-231 cells; averages of 2-8 determinations
Experimental: Colony forming efficiency was determined as previously reported [Huang and Wright, 1994]. The cells were cultured for 24 hours at 37° C. in growth medium with 10% fetal bovine serum. The cells were washed in 5 ml phosphate buffered saline, pH 7.2, once prior to lipofectin+/−oligonucleotide treatment.
The oligonucleotides being tested were added to cell cultures in the presence of 2.5 μg of DOTMA/DOPE (Lipofectin; Life Technologies, Inc.) for four hours. The oligonucleotide was tested at 0.2 μM unless otherwise indicated. Controls were the cultures treated with lipofectin but without the oligonucleotide. After 4 hours the medium containing the oligonucleotide was removed and washed with 5 ml of growth medium. The cells were then cultured in growth medium containing 10% fetal bovine serum for seven to ten days. Surviving cells were visualized by methylene blue staining, and colonies were scored. In some experiments cell aliquotes were removed from the culture and viability was determined using the trypan blue exclusion test [Phillips, 1973]. Results were analyzed as percent of surviving cells compared to control cells.
To test the antisense effects of many of these sequences as phosphorthioate deoxyribonucleotides, they were examined in relative colony forming experiments performed with a series of human tumor cell lines. Many of these antisense constructs, as predicted, are potent inhibitors of human tumor cell proliferation. For results obtained with cancer cells derived from the bladder, breast, lung, colon, pancreas, prostate, liver and cervix, see Table 13. In addition, in vivo studies with AS-II-626-20 were undertaken in C3H/HeN mice as reported in Table 14 and show a significant reduction in metastasis in the antisense treated mice.
Colony forming ability of MDA-MB-231 human breast cancer cells treated with 28 different antisense oligonucleotides was estimated as previously described (Choy et al., 1988). Aliquots of cell suspension were seeded into 60 mm Petri dishes and incubated at 37° C. overnight in α-MEM medium supplemented with 10% fetal bovine serum. Cells were washed in 5 ml of phosphate buffered saline, pH 7.2, prior to 0.2 μM antisense/lipofectin treatments for 4 hours. The media containing the antisense oligonucleotides were removed and cells were washed once and cultured in growth medium for 7 to 10 days. Colonies were stained with methylene blue and scored as described (Choy et al., 1988; Huang and Wright 1994). Percent inhibition was calculated by comparison with the number of colonies present in cultures grown in the absence of antisense oligonucleotides. All experiments were performed in quadruplicate. FIG. 11 is a graph of the percentage inhibition of colony formation by treatment with the various antisense oligonucleotides.
Colony forming ability of various human tumor cell lines was estimated by determining relative colony forming efficiencies (Choy et al., 1988). Cells from various cell lines were washed in 5 ml of phosphate buffered saline, pH 7.2. The cells were treated with 0.2 μM AS-I-618-20 antisense oligonucleotide/lipofectin for 4 hours. The medium containing the antisense oligonucleotide was then removed and the cells were gently washed with 5 ml of growth medium. The cells were cultured in growth medium containing 10% fetal bovine serum for seven to ten days. […] The following human tumor cell lines were evaluated: HepG2 (liver), SK-OV-3 (ovary), U87 (brain), A2058 (melanoma), H460 (lung), MDA-MB-231 (breast) and AsPC-1 (pancreas).

[5] = system: A549 lung cell carcinoma; assay: Relative colony forming efficiency after antisense treatment (Table 13); settings: 0.2 μM antisense oligodeoxyribonucleotide phosphorothioate; A549 cells; averages of 2-8 determinations
[6] = system: T24 bladder cell carcinoma; assay: as above; settings: 0.2 μM antisense oligodeoxyribonucleotide phosphorothioate; T24 cells; averages of 2-8 determinations
[7] = system: PC-3 prostrate cell adenocarcinoma; assay: as above; settings: 0.2 μM antisense oligodeoxyribonucleotide phosphorothioate; PC-3 cells; averages of 2-8 determinations

Sequence | Reduced relative colony forming efficiency, expressed as % inhibition, MIA PaCa-2 [1] [%] | Reduced relative colony forming efficiency, expressed as % inhibition, HepG2 [2] [%] | Reduced relative colony forming efficiency, expressed as % inhibition, HCT116 [3] [%] | Reduced relative colony forming efficiency, expressed as % inhibition, MDA-MB-231 [4] [%] | Reduced relative colony forming efficiency, expressed as % inhibition, A549 [5] [%] | Reduced relative colony forming efficiency, expressed as % inhibition, T24 [6] [%] | Reduced relative colony forming efficiency, expressed as % inhibition, PC-3 [7] [%]
TCAGGCAAGCAAAATCACAG (DNA, all phosphorothioate, methylation of C not given here) [AS-II-1001-20] | 64.21 | 90.36 | 55.58 | 82.17 | 71.36 | 86.11 | 85.94
GCAAAGGCTACAACACGTTC (antisense; DNA, all phosphorothioate, methylation of C not given here) [AS-II-861-20] | 97.3 | 96.08 | 74.2 | 89.98 | 95.78 | 73.5 | 87.33
CGGGTCCGTGATGGGCGCGA (dC*dG*dG*dG*dT*dC*dC*dG*dT*dG*dA*dT*dG*dG*dG*dC*dG*dC*dG*dA; antisense) [AS-II-217-20] | 87.38 | 99.55 | 61.85 | 52.7 |  | 65.02 | 87.41
CGTTGAGGAAAATACAGTGA (antisense; DNA, all phosphorothioate, methylation of C not given here) [AS-II-2182-20] | 56.43 | 95.48 | 77.66 | 84.95 | 90.97 | 67.76 | 85.91
TTAGAAGTCAGCATCCAAGG (DNA, all phosphorothioate, methylation of C not given here) [AS-II-1345-20] | 77.39 | 75.42 | 65.7 | 94.11 | 73.1 | 51.26 | 89.58
GGGCACATCTTCAGTTCATT (DNA, all phosphorothioate, methylation of C not given here) [AS-II-1364-20] | 59.34 |  | 77.29 | 93.87 | 95.59 | 66.59 | 79.01
GCCACAGGATAAAAACACAA (antisense; DNA, all phosphorothioate, methylation of C not given here) [AS-II-2009-20] | 93.74 | 96.99 | 69.92 | 96.25 | 93.32 | 61.84 | 83.36
GCAAAGAAAGCCAGAACATG (dG*dC*dA*dA*dA*dG*dA*dA*dA*dG*dC*dC*dA*dG*dA*dA*dC*dA*dT*dG; antisense) [AS-II-579-20] | 97.55 | 94.28 | 69.08 | 66.89 | 95.49 | 76.68 | 88.16
ATGGAAAAAAAAAATCAGCC (DNA, all phosphorothioate, methylation of C not given here) [AS-II-1390-20] | 82.77 | 90.21 | 62.18 | 66.89 | 88.31 | 61.13 | 76.76
GCACATCTTCAGTTCATTTA (DNA, all phosphorothioate, methylation of C not given here) [AS-II-1362-20] | 44.14 | 80.41 | 78.47 | 70.22 | 83.9 |  | 77.38
CACACAACCTACTTACACCA (antisense; DNA, all phosphorothioate, methylation of C not given here) [AS-II-2372-20] | 94.36 |  | 64.7 | 90.09 | 96.41 | 61.13 | 86.06
